Here are results for seven molecules from patent US7351389B2, “Aminocarboxylate ligands having substituted aromatic amide moieties” (Bracco International B.V., priority 1991, dated 2008).

The conditions of data set [1]: chelating a paramagnetic ion, e.g., Gd; cited from earlier work.
For data set [2] the following is noted: chelating a paramagnetic ion, e.g., Gd; cited from earlier work. The source holds these as a separate data set.
A short description of data set [3]: T1 relaxivity of gadolinium complexes (IBM Minispec spin analyzer). Type of data set: physicochemical. Conditions: Gd(L) complex, 20 MHz, 39±1° C.; for T1 Relaxivity: aqueous solutions, 0.1-5 mM Gd. The protocol:
The T1 relaxivity was measured for nine prior art gadolinium complexes (1-9) as compared to novel gadolinium complexes using the ligands of Examples 1, 2 and 3 (#10, 11 and 12, respectively, in the Table below). Relaxivity was measured on an IBM Minispec spin analyzer operating at 20 MHz and 39±1° C. Aqueous solutions were used in 0.1-5 mM Gd concentration range.

For `O=C(O)CN1CCN(CC(=O)O)CCN(CC(=O)Nc2ccccc2)CCN(CC(=O)O)CC1`, the water solubility result in data set [1] is on record as “poor water solubility”. Besides, the relaxivity result in data set [2] is reported as “acceptable relaxivity”.

“10-[2-[[3,5-Bis[[(2,3-dihydroxypropyl)amino]-carbonyl]phenyl]amino]-2-oxoethyl]-1,4,7,10-tetraazacyclododecane-1,4,7-triacetic acid, monogadolinium complex [HAA-DO3A]”: in data set [3], the “relaxivity (comparison in words of Table 1)” value is “especially high” and the T1 Relaxivity came out at 5.8 mM⁻¹ s⁻¹.

Take “10-[2-[[3,5-Bis[[(2-methylbutyl)amino]carbonyl]-phenyl]amino]2-oxoethyl]1,4,7,10-tetraazacyclododecane-1,4,7-triacetic acid, monogadolinium complex [AAA-DO3A]”: in data set [3], the “relaxivity (comparison in words of Table 1)” value is reported as “especially high” and the T1 Relaxivity stood at 5.9 mM⁻¹ s⁻¹.

In turn, `O=C(O)CN(CCN(CC(=O)O)CC(=O)O)CCN(CC(=O)O)CC(=O)O` (Gd complex, metal not drawn) [DTPA, diethylenetriaminepentaacetic acid, reference compound] had a T1 Relaxivity in data set [3] of 3.7 mM⁻¹ s⁻¹.

In turn, `O=C(O)CN(CCN(CC(=O)O)C(=O)NCC(O)CO)CCN(CC(=O)O)C(=O)NCC(O)CO` (centres unmarked) (Gd complex, metal not drawn) [DTPA-HA, reference compound] had a T1 Relaxivity in data set [3] of 4.4 mM⁻¹ s⁻¹.

Turning to `O=C(O)CN1CCN(CC(=O)O)CCN(CC(=O)O)CCN(CC(=O)O)CC1` [DOTA, reference compound], in data set [3], the T1 Relaxivity is 3.4 mM⁻¹ s⁻¹.

In the case of `O=C(O)CN1CCN(CC(=O)O)CCN(CC(=O)Nc2cc(C(=O)NC(CO)CO)cc(C(=O)NC(CO)CO)c2)CCN(CC(=O)O)CC1` [HAS-DO3A], in data set [3], the “relaxivity (comparison in words of Table 1)” value is given as “especially high” and the T1 Relaxivity was 5.4 mM⁻¹ s⁻¹.
